Results on eleven compounds are retold here after patent publication US12378256B2, “Heterocyclic compound” (Takeda Pharmaceutical Company Limited, priority 2017, dated 2025).

Series [1] in a line: Rat PK test (cassette dosing). Format: in vivo. The settings on record: male SD rats, plasma; for Tmax: oral 1 mg/kg and iv 0.1 mg/kg given, route not stated for Tmax, read-out: Tmax (time to reach maximum plasma concentration); for clearance / MRT: intravenous 0.1 mg/kg; for clearance: read-out: CL total (total clearance) (converted); for MRT: read-out: MRT iv (mean residence time). On the procedure:
As the rat, 8-week-old male SD rats (Japan SLC, Inc.) were used. They were fed on a solid commercially available diet (CE-2, CLEA Japan, Inc.) and allowed to freely ingest tap water as the drinking water. An intravenous administration solution for the rats was prepared by weighing a test compound, dissolving same in dimethylacetamide (DMA) (Wako Pure Chemical Industries, Ltd.), adding the same volume of 1,3-butanediol (Wako Pure Chemical Industries, Ltd.) and mixing by stirring to give a DMA:1,3-butanediol (1:1, v/v) solution. An oral administration solution was prepared by weighing a test compound, pulverizing same in an agate mortar, and gradually adding 0.5 w/v % aqueous methylcellulose solution to give a suspension. For intravenous administration, the solution was administered into femoral vein of the rats at 0.1 mg/0.5 mL/kg (salt converted to free form). For oral administration, the suspension was administered to the rats at 1 mg/5 mL/kg (salt converted to free form). The cassette dosing method was used for the both administration routes, and the test compound was administered in the following manner. • Compound of Example 20 (intravenous: 8 compounds cassette administration, oral: 5 compounds cassette administration) • Compound of Example 22 (intravenous: 5 compounds cassette administration, oral: 5 compounds cassette administration) • Compound of Example 31 (intravenous: 10 compounds cassette administration, oral: 5 compounds cassette administration) • Compound of Example 36 (intravenous: 10 compounds cassette administration, oral: 5 compounds cassette administration) • Compound of Example 44 (intravenous: 10 compounds cassette administration, oral: 5 compounds cassette administration) • Compound of Example 55 (intravenous: 6 compounds cassette administration, oral: 4 compounds cassette administration) • Compound of Example 74 (intravenous: 10 compounds cassette administration, oral: 5 compounds cassette administration) • Compound of Example 76 (intravenous: 9 compounds cassette administration, oral: 4 compounds cassette administration) • Compound of Example 77 (intravenous: 10 compounds cassette administration, oral: 5 compounds cassette administration) • Compound of Example 102 (intravenous: 10 compounds cassette administration, oral: 5 compounds cassette administration) • Compound of Example 109 (intravenous: 7 compounds cassette administration, oral: 4 compounds cassette administration)
In the case of intravenous administration, blood samples were collected from the tail vein at 5, 10, 15, 30 min, 1, 2, 4, 8 hr after administration, an anticoagulation treatment with heparin sodium (Shimizu Pharmaceutical Co., Ltd.) was performed, and plasma was collected after centrifugation and subjected to the measurement of drug concentration. In the case of oral administration, blood samples were collected from the tail vein at 15, 30 min, 1, 2, 4, 8 hr after administration, an anticoagulation treatment with heparin sodium was performed, and plasma was collected after centrifugation and subjected to the measurement of drug concentration.
All drug concentrations were measured by LC-MS/MS analysis. For a pharmacokinetics test, the plasma (50 μL) was placed in a tube, acetonitrile (150 μL) containing internal standard solution was added and they were mixed on a vortex mixer. Thereafter, the mixture was centrifuged (5000 rpm, 5 min, 4° C.). The supernatant (60 μL) after centrifugation was added to 10 mmol/L ammonium formate (160 μL) added earlier and mixed therewith. This sample was injected to LC/MS/MS. […]

The target of series [2] is T1, MDR1 (Homo sapiens, UniProt P08183).
T1 construct: expressed in transfected cells; host or cells: LLC-PK1 (porcine kidney cells)
T1 sequence (P08183 whole entry): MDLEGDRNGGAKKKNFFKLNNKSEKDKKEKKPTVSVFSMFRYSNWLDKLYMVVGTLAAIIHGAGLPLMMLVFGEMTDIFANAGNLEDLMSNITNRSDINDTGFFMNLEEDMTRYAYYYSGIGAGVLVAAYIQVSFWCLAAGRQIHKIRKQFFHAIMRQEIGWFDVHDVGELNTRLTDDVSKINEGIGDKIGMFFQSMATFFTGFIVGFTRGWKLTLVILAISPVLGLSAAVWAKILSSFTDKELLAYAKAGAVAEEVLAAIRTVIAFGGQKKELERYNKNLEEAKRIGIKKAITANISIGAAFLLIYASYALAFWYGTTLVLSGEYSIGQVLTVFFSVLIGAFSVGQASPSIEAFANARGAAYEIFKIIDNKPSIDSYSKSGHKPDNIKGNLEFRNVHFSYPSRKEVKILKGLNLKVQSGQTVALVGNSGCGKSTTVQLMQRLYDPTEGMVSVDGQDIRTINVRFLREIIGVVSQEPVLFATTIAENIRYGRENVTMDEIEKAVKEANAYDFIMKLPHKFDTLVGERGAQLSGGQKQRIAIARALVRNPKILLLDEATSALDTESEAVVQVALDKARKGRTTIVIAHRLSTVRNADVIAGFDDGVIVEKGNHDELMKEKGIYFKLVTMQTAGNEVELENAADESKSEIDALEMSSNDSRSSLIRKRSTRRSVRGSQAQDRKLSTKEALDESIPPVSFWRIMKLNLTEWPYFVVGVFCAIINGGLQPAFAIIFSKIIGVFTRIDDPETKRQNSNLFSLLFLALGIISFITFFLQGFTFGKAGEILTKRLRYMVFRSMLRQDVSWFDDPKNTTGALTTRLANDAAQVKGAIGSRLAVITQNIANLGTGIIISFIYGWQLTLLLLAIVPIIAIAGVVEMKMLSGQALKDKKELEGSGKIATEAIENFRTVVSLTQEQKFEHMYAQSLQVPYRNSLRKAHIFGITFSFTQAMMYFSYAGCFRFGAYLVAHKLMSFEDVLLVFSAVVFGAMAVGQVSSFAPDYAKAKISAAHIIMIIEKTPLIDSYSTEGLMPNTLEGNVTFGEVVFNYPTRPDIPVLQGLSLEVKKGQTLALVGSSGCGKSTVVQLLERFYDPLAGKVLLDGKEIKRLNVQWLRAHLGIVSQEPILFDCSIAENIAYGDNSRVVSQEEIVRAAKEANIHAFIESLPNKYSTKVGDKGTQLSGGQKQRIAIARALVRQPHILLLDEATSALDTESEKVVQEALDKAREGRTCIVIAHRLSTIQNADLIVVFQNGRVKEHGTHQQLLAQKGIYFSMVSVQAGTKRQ
In words: MDR1 membrane permeability test. The series is classed as in vitro ADME. The settings on record: pH 7.4, efflux ratio (ER), human MDR1-expressing LLC-PK1 cells, 37° C., read-out: MDR1 substrate screening 1 μM (MDRSUB1)/Ratio (NUMBER). The procedure:
MDR1 Membrane Permeability Test
When MDR1 is expressed in excess in LLC-PK1 cell, which is a polar cell, MDR1 is localized in apical membrane (A), thus promoting transcellular transport from the basement membrane side (B) toward direction A. When a ratio to the transcellular transport in the opposite direction is taken and a ratio to a control cell in which a mock vector has been introduced is further taken, an efflux ratio of MDR1 to simple diffusion (corrected efflux ratio) is calculated. Similarly, when a brain/plasma concentration ratio in Mdr1(−/−) mouse is divided by a brain/plasma concentration ratio in wild-type mouse, an efflux ratio of Mdr1 to simple diffusion in blood-brain barrier (BBB) (Kp, brain ratio, higher value means lower central nervous system permeability) is calculated. Adachi Y. et al. (Reference 1) has reported a positive correlation between corrected efflux ratio and Kp, brain ratio (FIG. 5(C)), and efflux ratio in MDR1 expressing cell and Kp, brain ratio (FIG. 5(B)).
To confirm the central nervous system permeability of the compounds of the present invention, a MDR1 membrane permeability test was performed by the following method.
Digoxin and lucifer yellow (LY) were purchased from Sigma-Aldrich, Diclofenac, colchicine and alprenolol were purchased from Wako Pure Chemical Industries, Ltd., and other reagents used were commercially available products of special grade.
Human MDR1-expressing LLC-PK1 cells were cultured according to the report of Takeuchi et al. (Reference 2). Human MDR1-expressing LLC-PK1 cells were cultured in 10% fetal bovine serum (Invitrogen), 500 μg/ml G418 (Invitrogen), 150 ng/ml colchicine-containing M199 medium (Invitrogen) under 5% CO2 conditions at 37° C.
Transcellular transport was performed according to the report of Sugimoto et al. (Reference 3). The cells were cultured for 3 days on HTS Transwell (registered trademark) 96 well permeable support (pore size 0.4 μm, 0.143 cm^2 surface area, Corning Life Sciences) having polyethylene terephthalate membrane on which the cells had been seeded at 3.45×10^4 cells/well. After preincubation in M199 medium (containing 10 mmol/L HEPES, 1% BSA, pH 7.4) for 30 min, a drug solution (10 μmol/L digoxin, 200 μmol/L LY, […]) dissolved in M199 medium was added to the apical side or basolateral side of the Transwell by 75 or 250 μL each and the cells were cultured under 5% CO2 conditions at 37° C. After 1 hr, the sample was collected from the side opposite to the side where the drug solution was added, and the concentration of the test compound was measured by LC-MS/MS. As an internal standard substance, 100 ng/mL alprenolol and diclofenac were used. The analysis conditions were as follows. • LC: UFLC LC-20 (Shimadzu) • MS/MS: API4000 (AB Sciex Instruments) • LC condition: gradient method
[formula] • Amount: amount of transported digoxin/well • Area: surface area of cell monolayer (0.143 cm^2) • C0: concentration of drug solution added • Time: incubation time

In the case of `Cn1cc(-c2ccc(C(F)c3cc(C(=O)N[C@H]4CCOC[C@@H]4O)nc4ccoc34)cc2)nn1` (single isomer, unassigned) [Example 55, 1,5-anhydro-2,3-dideoxy-3-(((7-(fluoro(4-(1-methyl-1H-1,2,3-triazol-4-yl)phenyl)methyl)furo[3,2-b]pyridin-5-yl)carbonyl)amino)-L-threo-pentitol], in series [1], the Tmax came out at 1.7 h, the clearance is 30.2 mL/min/kg and the MRT worked out at 0.6 h. In series [2], the efflux ratio at 1 h, 1 μM stood at 6.5.
Take `Cn1cc(-c2ccc(Cc3cc(C(=O)N[C@H]4CCOC[C@@H]4O)nc4ccoc34)cc2)nn1` [Example 20, 1,5-anhydro-2,3-dideoxy-3-(((7-(4-(1-methyl-1H-1,2,3-triazol-4-yl)benzyl)furo[3,2-b]pyridin-5-yl)carbonyl)amino)-L-threo-pentitol]: in series [1], the Tmax came out at 2 h, the clearance was 4.1 mL/min/kg and the MRT was 1.8 h. For the same compound, in series [2], the efflux ratio at 1 h, 1 μM was 4.8.
As to `O=C(N[C@H]1CCOC[C@@H]1O)c1cc(Cc2ccc(-n3cccn3)cc2)c2c(n1)CCO2` [Example 22, 1,5-anhydro-2,3-dideoxy-3-(((7-(4-(1H-pyrazol-1-yl)benzyl)-2,3-dihydrofuro[3,2-b]pyridin-5-yl)carbonyl)amino)-L-threo-pentitol], in series [1], the Tmax came to 2 h, the clearance was 4.67 mL/min/kg and the MRT is 1.9 h. The efflux ratio at 1 h, 1 μM in series [2] was determined as 2.6.
As to `Cn1cc(-c2ccc(Cc3cc(C(=O)N[C@H]4CCOC[C@@H]4O)nc4c3OCC4)cc2)nn1` [Example 31, 1,5-anhydro-2,3-dideoxy-3-(((7-(4-(1-methyl-1H-1,2,3-triazol-4-yl)benzyl)-2,3-dihydrofuro[3,2-b]pyridin-5-yl)carbonyl)amino)-L-threo-pentitol], in series [1], the Tmax stood at 1 h, the clearance was 3.33 mL/min/kg and the MRT was determined as 1.5 h. In series [2], the efflux ratio at 1 h, 1 μM worked out at 11.
As to `Cn1cc(-c2ccc(Cc3cc(C(=O)N[C@H]4CCOC[C@@H]4O)nc4ccoc34)cn2)cn1` [Example 36, 1,5-anhydro-2,3-dideoxy-3-(((7-((6-(1-methyl-1H-pyrazol-4-yl)pyridin-3-yl)methyl)furo[3,2-b]pyridin-5-yl)carbonyl)amino)-L-threo-pentitol], in series [1], the Tmax stood at 1.3 h, the clearance is 5.45 mL/min/kg and the MRT was found to be 1.9 h. Further, the efflux ratio at 1 h, 1 μM in series [2] came out at 9.1.
Consider `Cn1cc(-c2ccc(Cc3cc(C(=O)N[C@H]4CCOC[C@@H]4O)nc4c3OCC4)cc2)cn1` [Example 44, 1,5-anhydro-2,3-dideoxy-3-(((7-(4-(1-methyl-1H-pyrazol-4-yl)benzyl)-2,3-dihydrofuro[3,2-b]pyridin-5-yl)carbonyl)amino)-L-threo-pentitol], for which, in series [1], the Tmax stood at 1.3 h, the clearance is 4.77 mL/min/kg and the MRT is 1.3 h. The efflux ratio at 1 h, 1 μM in series [2] was 5.5.
As for `Cn1cnc(-c2ccc(Cc3cc(C(=O)N[C@H]4CCOC[C@@H]4O)nc4c3OCC4)cc2)c1` [Example 74, 1,5-anhydro-2,3-dideoxy-3-(((7-(4-(1-methyl-1H-imidazol-4-yl)benzyl)-2,3-dihydrofuro[3,2-b]pyridin-5-yl)carbonyl)amino)-L-threo-pentitol], in series [1], the Tmax amounted to 0.8 h, the clearance is 14 mL/min/kg and the MRT was found to be 0.9 h. In addition, in series [2], the efflux ratio at 1 h, 1 μM was 11.
Regarding `COCCNC(=O)c1ccc(Cc2cc(C(=O)N[C@H]3CCOC[C@@H]3O)nc3c2OCC3)cc1F` [Example 76, 1,5-anhydro-2,3-dideoxy-3-(((7-(3-fluoro-4-((2-methoxyethyl)carbamoyl)benzyl)-2,3-dihydrofuro[3,2-b]pyridin-5-yl)carbonyl)amino)-L-threo-pentitol], in series [1], the Tmax was determined as 0.8 h, the clearance is 5.58 mL/min/kg and the MRT was 1.2 h. Besides, the efflux ratio at 1 h, 1 μM in series [2] came to 35.
As for `O=C(N[C@H]1CCOC[C@@H]1O)c1cc(Cc2ccc(C(=O)NC[C@@H]3CCCO3)c(F)c2)c2c(n1)CCO2` [Example 77, 1,5-anhydro-2,3-dideoxy-3-(((7-(3-fluoro-4-(((2S)-tetrahydrofuran-2-ylmethyl)carbamoyl)benzyl)-2,3-dihydrofuro[3,2-b]pyridin-5-yl)carbonyl)amino)-L-threo-pentitol], in series [1], the Tmax stood at 1 h, the clearance is 8.13 mL/min/kg and the MRT came out at 0.8 h. Further, the efflux ratio at 1 h, 1 μM in series [2] worked out at 25.
With `O=C(N[C@H]1CCOC[C@@H]1O)c1cc(Cc2ccc(C(=O)NC[C@@H]3CCCO3)c(F)c2)c2occc2n1` [Example 102, 1,5-anhydro-2,3-dideoxy-3-(((7-(3-fluoro-4-(((2S)-tetrahydrofuran-2-ylmethyl)carbamoyl)benzyl)furo[3,2-b]pyridin-5-yl)carbonyl)amino)-L-threo-pentitol], in series [1], the Tmax amounted to 1 h, the clearance is 11.7 mL/min/kg and the MRT came out at 0.9 h. In addition, the efflux ratio at 1 h, 1 μM in series [2] came to 20.
`COCCNC(=O)c1ccc(Cc2cc(C(=O)N[C@H]3CCOC[C@@H]3O)nc3ccoc23)cc1F` [Example 109, 1,5-anhydro-2,3-dideoxy-3-(((7-(3-fluoro-4-((2-methoxyethyl)carbamoyl)benzyl)furo[3,2-b]pyridin-5-yl)carbonyl)amino)-L-threo-pentitol]: in series [1], the Tmax stood at 1 h, the clearance was 6.73 mL/min/kg and the MRT is 1.5 h. For the same compound, in series [2], the efflux ratio at 1 h, 1 μM amounted to 10.
